Test results from patent US9101618B2, “Method for treating and/or preventing neurodegenerative disease by adiponectin receptor agonist” (TOKYO METROPOLITAN INSTITUTE OF MEDICAL SCIENCE, priority 2011, dated 2015).
Where a SMILES comes first, the peptide text is derived from it. The star is where a group is joined. Cbz = O=C(OCc1ccccc1)*

Legend:
GSK-3β (beta) = test: Addition of p38 MAPK inhibitor and AMPK inhibitor: phospho-GSK-3β western blotting; type: cell-based, rat; details: 5 μM inhibitor 10 min, then adiponectin 1 μg/mL 30 min
Description: The aforementioned B103 neuroblastoma cells (α (alpha)S) were inoculated on the 6-well plate and cultured to a state of about 80-90% confluence. After washing with PBS, the aforementioned cells were further cultured for 10 min in an inhibition test medium prepared by adding either 5 μM p38 MAPK inhibitor (SB203580, Promega) or 5 μM AMPK inhibitor (Compound C, Calbiochem) to a serum-free medium. As a control, DMSO was added to a serum-free medium instead of the aforementioned inhibitors. Later, either recombinant human adiponectin (1 μg/mL, trimer, PROSPEC) or PBS was added so as to culture the cells for 30 min. The cells collected were then lysed with the aforementioned cell lysis solution. Supernatants were collected after performing centrifugation at 100,000×g for 30 min, and then subjected to western blotting. Here, western blotting was performed in accordance with the procedures described in example 1.
When performing western blotting to evaluate signal transduction pathways, the anti-phospho-GSK-3β (beta) (Ser9) antibody (D85E12, Cell Signaling Technology), the anti-GSK-3β (beta) antibody (BD Biosciences) and the anti-β (beta)-actin mouse monoclonal antibody (C-15, Sigma-Aldrich Japan Inc.) were used as primary antibodies after being appropriately diluted. Further, the HRP labeled anti-mouse IgG antibody (DAKO) was used as a secondary antibody after being appropriately diluted.

B103 neuroblastoma cells [1] = test: Induction of adiponectin mRNA expression by proteasome inhibition (RT-PCR); type: cell-based, rat; details: 10 μM, six hours, regardless of the presence of α-synuclein expression
Description: RT-PCR was performed in accordance with a method of Fujita et al. (Fujita et al., Nat. Commun. 1:110 (2010)). Total RNA was extracted from the frozen brain samples of the α (alpha)S tg mice and the non tg mice by ISOGEN (NIPPON GENE CO., LTD.), followed by performing DNase (DNase 1, Invitrogen, Life Technologies Japan Ltd.) treatment at 37° C. for 30 min. Here, cDNA was synthesized from the total RNA of 2.5 μg, using Superscript III First-Strand Synthesis system (Invitrogen, Life Technologies Japan Ltd.).
A reaction condition of PCR was as follows. That is, PCR was at first performed at 94° C. for 5 min, followed by repeating 35 times a cycle of: 95° C. for 30 sec; 55° C. for 30 sec; and 72° C. for 60 sec. Subsequently, PCR was further performed at 72° C. for 10 min before reaching a stationary state and being left standing at 4° C. PCR products were electrophoresed in 1.2% agarose gel. With regard to an mRNA amount of each gene, concentrations of ethidium bromide-stained bands of the PCR products were quantitated by densitometer (ATTO). mRNA amounts of adiponectin were standardized by mRNA amounts of cyclophilin A.
MG132 (Calbiochem, Merck & Co., Inc.) was used as a proteasome inhibitor. […] Six hours later, the aforementioned cells were collected, and expression of adiponectin mRNA was measured by RT-PCR.

[2] = system: B103 neuroblastoma cells (α (alpha)S); test: Thioflavin T staining of adiponectin siRNA-transduced cells; type: cell-based, rat; details: α-synuclein expressing neuroblastoma cells with adiponectin expression suppressed
Description: (§1) Rat adiponectin sense strand RNA: 5′-CAAUGACUCUACAUUUACAtt-3′ (SEQ. No. 15), antisense strand RNA: 5′-UGUAAAUGUAGAGUCAUUGtt-3′ (SEQ. No. 16), sense strand RNA of random sequence in control experiment: 5′-UCUUAAUCGCGUAUAAGGCtt-3′ (SEQ. No. 17) and antisense strand RNA: 5′-GCCUUAUACGCGAUUAAGAtt-3′ (SEQ. No. 18) were prepared utilizing Takara siRNA Design Support System (http://www.takara-bio.co.jp/rnai/) (Takara Bio Inc.). The B103 neuroblastoma cells (α (alpha)S) and the B103 neuroblastoma cells (vector) for the control experiment were cultured using a commercially available 6-well plate, and were transfected using Lipofectamine 2000 (Invitrogen, Life Technologies Japan Ltd.) in a state of 30-50% confluence. After performing transfection for six hours, a medium was replaced with a DMEM containing 10% FBS. After performing cultivation for 24 hours, the medium was then replaced with a serum-free DMEM medium so as to avoid effects of adiponectin. After performing cultivation for another three days, transfected B103 neuroblastoma cells were collected so as to be subjected to a detection of an aggregate state of α (alpha)-synuclein and a measurement of proteasomal activity. Further, transfection to B103 neuroblastoma cells for thioflavin T staining were carried out on a polylysine-coated cover glass. […]

B103 neuroblastoma cells [3] = test: Measurement of proteasomal activity in siRNA-transduced cells; type: cell-based, rat; details: compared to cells transduced with siRNA of random sequence
Description: Rat adiponectin sense strand RNA: 5′-CAAUGACUCUACAUUUACAtt-3′ (SEQ. No. 15), antisense strand RNA: 5′-UGUAAAUGUAGAGUCAUUGtt-3′ (SEQ. No. 16), sense strand RNA of random sequence in control experiment: 5′-UCUUAAUCGCGUAUAAGGCtt-3′ (SEQ. No. 17) and antisense strand RNA: 5′-GCCUUAUACGCGAUUAAGAtt-3′ (SEQ. No. 18) were prepared utilizing Takara siRNA Design Support System (http://www.takara-bio.co.jp/rnai/) (Takara Bio Inc.). The B103 neuroblastoma cells (α (alpha)S) and the B103 neuroblastoma cells (vector) for the control experiment were cultured using a commercially available 6-well plate, and were transfected using Lipofectamine 2000 (Invitrogen, Life Technologies Japan Ltd.) in a state of 30-50% confluence. After performing transfection for six hours, a medium was replaced with a DMEM containing 10% FBS. […]
siRNA-transduced B103 neuroblastoma cells were collected with HEPES buffer (50 mM HEPES (pH 7.4), 10 mM EDTA, 10 mM NaCl). […] Protein concentrations were measured, and […] thereof was dissolved in HEPES buffer containing 40 μM of benzyloxycarbonyl-Leu-Leu-Glu-amidomethylcoumarin fluorescent proteasome substrate (Chemicon, Japan Millipore Corporation). Proteasomal activity was calculated as follows. That is, a disintegrated amount of substrate was measured by Berthold Mithras LB940 microplate reader (Berthold Japan co. ltd.), according to time for one hour and at 37° C. […]

[4] = system: B103 neuroblastoma cells (α (alpha)S); test: Effect of adiponectin siRNA on aggregate state of α-synuclein (western blotting of soluble fractions); type: cell-based, rat; details: B103 neuroblastoma cells (αS), siRNA transduced, cultivated 72 hours, western blot
Description: as §1, with “activity.” for “activity. Further, transfection to B103 neuroblastoma cells for thioflavin T staining were carried out on a polylysine-coated cover glass.”
Extraction of each soluble fraction and quantification of protein in each soluble fraction by western blotting were performed in accordance with procedures similar to those of example 1 through example 3.

α (alpha)S tg mouse [5] = test: Continuous nasal administration of globular adiponectin: GFAP in surfactant insoluble fraction; type: in vivo; details: versus gAPN non-administration group
Description: An α (alpha)S tg mouse and a non tg mouse were distinguished in accordance with the method described in example 2. Globular adiponectin (gAPN) was nasally administered to the α (alpha)S tg mouse and the non tg mouse on days 0, 3, 6, 9, 12, 15, 18 and 21. Further, as a control, PBS was nasally administered to the α (alpha)S tg mouse and the non tg mouse on days 0, 3, 6, 9, 12, 15, 18 and 21. When performing nasal administration, 10 μL of the transmucosal absorption enhancer (PBS containing 5 mg/mL poly-L-arginine hydrochloride (molecular mass>70,000 (Sigma-Aldrich Japan Inc.)) was nasally administered to the mouse. Half an hour later, either 10 μL of globular adiponectin (PBS containing 1 mg/mL gAPN (Prospec)) or 10 μL of PBS was nasally administered to the mouse. On day 22 of nasal administration, the aforementioned mouse was euthanized in accordance with the method described in example 2, followed by collecting brain samples thereof. The hemispheres used for pathological analysis were immersion-fixed using 4% paraformaldehyde, followed by being embedded in paraffin. The other hemispheres used for western blotting were frozen by liquid nitrogen and stored at −80° C. […]

α (alpha)S tg mouse [6] = test: Continuous nasal administration of globular adiponectin: immunohistochemical staining of brain; type: in vivo
Description: (§2) An α (alpha)S tg mouse and a non tg mouse were distinguished in accordance with the method described in example 2. Globular adiponectin (gAPN) was nasally administered to the α (alpha)S tg mouse and the non tg mouse on days 0, 3, 6, 9, 12, 15, 18 and 21. Further, as a control, PBS was nasally administered to the α (alpha)S tg mouse and the non tg mouse on days 0, 3, 6, 9, 12, 15, 18 and 21. When performing nasal administration, 10 μL of the transmucosal absorption enhancer (PBS containing 5 mg/mL poly-L-arginine hydrochloride (molecular mass>70,000 (Sigma-Aldrich Japan Inc.)) was nasally administered to the mouse. Half an hour later, either 10 μL of globular adiponectin (PBS containing 1 mg/mL gAPN (Prospec)) or 10 μL of PBS was nasally administered to the mouse. On day 22 of nasal administration, the aforementioned mouse was euthanized in accordance with the method described in example 2, followed by collecting brain samples thereof. The hemispheres used for pathological analysis were immersion-fixed using 4% paraformaldehyde, followed by being embedded in paraffin. The other hemispheres used for western blotting were frozen by liquid nitrogen and stored at −80° C.
Immunohistochemical staining was performed in a standard manner known to those skilled in the art. Briefly, thin sliced sections were prepared at a thickness of 4 μm, using the brain samples embedded in paraffin. After being deparaffinized, the thin sliced sections were placed in a 10 mM sodium citrate buffer solution (pH 6.0) to be subjected to an antigen activation treatment (95° C., 10 min) using microwave (MW). After completing the antigen activation treatment, the thin sliced sections were further treated for 15 min with methanol containing 3% hydrogen peroxide. After washing, the thin sliced sections were then subjected to blocking for 30 min, using 10% goat normal serum (Vector Laboratories, Inc.)/TBS (25 mM Tris-HCl (pH 7.5), 0.15 M NaCl). Later, the thin sliced sections were incubated overnight at 4° C. with a primary antibody (anti-α (alpha)-synuclein antibody or anti-GFAP antibody) diluted with 0.1% bovine serum albumin (BSA)/TBS. After washing, the thin sliced sections were further incubated for 20 min at room temperature with a secondary antibody (biotin labeled anti-mouse IgG antibody (Vector Laboratories, Inc.)) diluted with 0.1% BSA/TBS. When performing staining, there were used ABC kit (Vector Laboratories, Inc.) and 3,3′-diaminobenzidine tetrahydrochloride (DAB). After completing staining, the thin sliced sections were observed using a microscope.

α (alpha)S tg mouse [7] = test: Continuous nasal administration of globular adiponectin: α-synuclein aggregation in various fractions; type: in vivo; details: cerebral cortex, gAPN-administered group
Description: as §2
The TBS soluble fraction, the SDS soluble fraction and the formic acid soluble fraction were prepared from the cerebral cortex of the brain sample in accordance with the method described in example 1. […]

[8] = nasal, days 0-21 every 3 days, brain on day 22

c1cc(-c2cnn3cc(-c4ccc(OCCN5CCCCC5)cc4)cnc23)ccn1 [Compound C]
phosphorylated GSK-3β in surfactant soluble fraction (GSK-3β (beta)): detected

CC(C)C[C@@H](C=O)NC(=O)[C@H](CC(C)C)NC(=O)[C@H](CC(C)C)NC(=O)OCc1ccccc1 [MG132] (Cbz-Leu-Leu-Leu-aldehyde)
induction of adiponectin expression (mRNA) (B103 neuroblastoma cells [1]): increased

C[S+]([O-])c1ccc(-c2nc(-c3ccncc3)c(-c3ccc(F)cc3)[nH]2)cc1 (stereo not drawn) [SB203580]
phosphorylated GSK-3β in surfactant soluble fraction (GSK-3β (beta)): not detected

APN siRNA: Rat adiponectin siRNA, sense strand SEQ. No. 15, antisense strand SEQ. No. 16 (sense CAAUGACUCUACAUUUACATT; antisense UGUAAAUGUAGAGUCAUUGTT; RNA strands with tt 3' overhangs, overhang chemistry not given here, further chemistry not given here)
thioflavin T staining (aggregation of protein) [2]: thioflavin T-positive | proteasomal activity (B103 neuroblastoma cells [3]): low | α-synuclein in the formic acid soluble fraction [4]: also detected

B1: gAPN: Globular adiponectin (Prospec); adiponectin isoform whose N-terminal collagen-like domain has been cut by protease (protein, listed as Homo sapiens)
chain: PGEGAYVYRSAFSVGLETYVTIPNMPIRFTKIFYNQQNHYDGSTGKFHCNIPGLYYFAYHITVYMKDVKVSLFKKDKAMLFTYDQYQENNVDQASGSVLLHLEVGDQVWLQVYGEGERNGLYADNDNDSTFTGFLLYHDTN
modifications: human adiponectin globular domain
notes: Globular adiponectin (Prospec); adiponectin isoform whose N-terminal collagen-like domain has been cut by protease
GFAP in surfactant insoluble fraction (α (alpha)S tg mouse [5]): observed less | adverse effects (α (alpha)S tg mouse [6]; continuous nasal administration): not observed particularly | growth of astrocyte in cerebral cortex (α (alpha)S tg mouse [6]; [8]): hardly detected | α-synuclein aggregates in olfactory bulb (α (alpha)S tg mouse [6]; [8]): hardly detected | α-synuclein aggregates in thalamus (α (alpha)S tg mouse [6]; [8]): hardly detected | amount of α-synuclein aggregates in SDS soluble fraction (α (alpha)S tg mouse [7]): decreased significantly
